Patent publication US9458110B2, “Phenylpyrazole derivatives as potent ROCK1 and ROCK2 inhibitors” (BRISTOL-MYERS SQUIBB COMPANY, priority 2013, dated 2016)

Tests used:
[1] = target: ROCK1 (Homo sapiens (Human), UniProt Q13464); test: ROCK assay (Caliper LABCHIP peptide phosphorylation), ROCK1; type: biochemical; conditions: 5 μM ATP, 1.5 μM peptide substrate;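 further: Read-out is separation of phosphorylated from unphosphorylated peptide, with kinase activity inhibition computed at every concentration of a dose-response series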
Sequence of ROCK1 (Q13464 whole entry, species assumed): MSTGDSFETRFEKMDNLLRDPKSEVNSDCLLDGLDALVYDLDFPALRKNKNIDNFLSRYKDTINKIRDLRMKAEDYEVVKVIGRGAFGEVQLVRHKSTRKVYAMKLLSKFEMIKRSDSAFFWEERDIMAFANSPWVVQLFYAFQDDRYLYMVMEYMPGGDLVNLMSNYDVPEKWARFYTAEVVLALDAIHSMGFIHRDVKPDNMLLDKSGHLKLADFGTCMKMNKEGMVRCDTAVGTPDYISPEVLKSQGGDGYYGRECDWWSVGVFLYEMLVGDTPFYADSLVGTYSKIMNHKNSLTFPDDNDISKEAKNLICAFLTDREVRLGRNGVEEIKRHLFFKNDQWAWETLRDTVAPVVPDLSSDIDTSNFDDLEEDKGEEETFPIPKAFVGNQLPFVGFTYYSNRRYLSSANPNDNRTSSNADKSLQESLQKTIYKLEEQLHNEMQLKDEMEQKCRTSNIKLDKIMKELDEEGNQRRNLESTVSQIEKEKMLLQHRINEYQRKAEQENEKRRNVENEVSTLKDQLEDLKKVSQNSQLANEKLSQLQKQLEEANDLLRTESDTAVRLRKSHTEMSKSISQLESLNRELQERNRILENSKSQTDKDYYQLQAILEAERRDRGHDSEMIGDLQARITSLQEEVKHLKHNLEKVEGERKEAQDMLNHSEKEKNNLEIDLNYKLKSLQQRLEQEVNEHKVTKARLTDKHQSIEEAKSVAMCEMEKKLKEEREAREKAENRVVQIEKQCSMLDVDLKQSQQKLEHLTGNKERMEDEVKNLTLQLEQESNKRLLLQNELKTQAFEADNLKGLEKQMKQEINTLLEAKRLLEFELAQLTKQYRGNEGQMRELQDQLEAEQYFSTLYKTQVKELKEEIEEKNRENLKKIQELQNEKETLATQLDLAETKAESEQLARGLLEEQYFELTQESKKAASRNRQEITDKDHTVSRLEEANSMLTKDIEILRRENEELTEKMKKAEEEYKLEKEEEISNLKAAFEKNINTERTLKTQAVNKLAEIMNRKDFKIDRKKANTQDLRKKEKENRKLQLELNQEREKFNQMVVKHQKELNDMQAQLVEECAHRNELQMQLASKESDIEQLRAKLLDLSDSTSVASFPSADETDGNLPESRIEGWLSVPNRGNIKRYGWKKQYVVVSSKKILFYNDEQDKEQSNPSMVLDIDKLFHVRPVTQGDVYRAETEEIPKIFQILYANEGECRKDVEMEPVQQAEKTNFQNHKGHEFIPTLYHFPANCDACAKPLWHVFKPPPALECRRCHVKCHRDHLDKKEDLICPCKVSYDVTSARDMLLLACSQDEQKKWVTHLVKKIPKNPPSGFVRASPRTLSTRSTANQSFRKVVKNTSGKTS

[2] = target: ROCK2 (Homo sapiens (Human), UniProt O75116); test: ROCK assay (Caliper LABCHIP peptide phosphorylation), ROCK2; type: biochemical; conditions: 5 μM ATP, 1.5 μM peptide substrate;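 further: reaction stopped with EDTA, then phosphorylated and unphosphorylated peptide resolved by microfluidic electrophoresis, kinase inhibition computed at each compound concentration in dose-response series, DMSO under 2%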
Sequence of ROCK2 (O75116 whole entry, species assumed): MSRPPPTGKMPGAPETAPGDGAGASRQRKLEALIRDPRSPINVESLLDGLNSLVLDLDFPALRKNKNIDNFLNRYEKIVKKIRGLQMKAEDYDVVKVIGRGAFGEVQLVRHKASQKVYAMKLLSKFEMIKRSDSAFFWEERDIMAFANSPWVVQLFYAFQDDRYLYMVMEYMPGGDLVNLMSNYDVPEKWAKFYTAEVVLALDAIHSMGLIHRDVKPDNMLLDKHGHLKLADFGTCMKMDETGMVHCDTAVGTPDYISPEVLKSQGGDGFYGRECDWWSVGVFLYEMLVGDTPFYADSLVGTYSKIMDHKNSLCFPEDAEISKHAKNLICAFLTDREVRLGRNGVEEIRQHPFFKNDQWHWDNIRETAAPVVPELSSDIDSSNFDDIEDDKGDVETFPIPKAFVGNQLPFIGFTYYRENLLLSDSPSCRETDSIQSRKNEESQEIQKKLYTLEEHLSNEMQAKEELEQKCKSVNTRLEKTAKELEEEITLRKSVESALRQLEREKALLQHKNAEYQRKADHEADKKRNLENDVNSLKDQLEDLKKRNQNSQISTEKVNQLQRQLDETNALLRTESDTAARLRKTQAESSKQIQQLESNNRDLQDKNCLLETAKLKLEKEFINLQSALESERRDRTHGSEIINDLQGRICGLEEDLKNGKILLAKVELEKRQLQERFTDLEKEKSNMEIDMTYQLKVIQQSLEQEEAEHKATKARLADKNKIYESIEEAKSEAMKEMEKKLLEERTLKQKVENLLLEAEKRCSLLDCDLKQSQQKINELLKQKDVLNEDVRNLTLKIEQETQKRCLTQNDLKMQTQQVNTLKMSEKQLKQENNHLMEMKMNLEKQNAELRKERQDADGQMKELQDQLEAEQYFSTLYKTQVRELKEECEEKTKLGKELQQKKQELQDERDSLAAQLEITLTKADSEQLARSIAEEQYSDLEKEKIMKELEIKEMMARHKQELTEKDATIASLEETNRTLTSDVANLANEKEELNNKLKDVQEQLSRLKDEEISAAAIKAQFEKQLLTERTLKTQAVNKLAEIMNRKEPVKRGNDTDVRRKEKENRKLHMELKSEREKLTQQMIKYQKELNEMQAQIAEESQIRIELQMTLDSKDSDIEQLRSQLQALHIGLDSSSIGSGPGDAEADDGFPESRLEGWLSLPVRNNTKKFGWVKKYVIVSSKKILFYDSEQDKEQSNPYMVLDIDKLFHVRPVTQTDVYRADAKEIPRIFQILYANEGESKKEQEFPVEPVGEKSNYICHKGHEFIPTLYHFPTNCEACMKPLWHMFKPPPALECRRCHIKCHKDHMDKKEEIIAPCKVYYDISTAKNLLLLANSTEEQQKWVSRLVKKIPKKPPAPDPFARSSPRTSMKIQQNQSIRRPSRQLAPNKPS

IC50 [1] [nM]	IC50 [2] [nM]	Compound
204	104	COc1cc(C(=O)NCc2ccccc2C(C)C)ccc1-c1cn[nH]c1 [Example 267, 3-Methoxy-N-{[2-(propan-2-yl)phenyl]methyl}-4-(1H-pyrazol-4-yl)benzamide]
284	58.8	C[C@@H](NC(=O)c1ccc(-c2cn[nH]c2)c(CO)c1)c1ccccc1 [Example 272, 3-(hydroxymethyl)-N-[(1R)-1-phenylethyl]-4-(1H-pyrazol-4-yl)benzamide]
50	7.73	CC(O)c1cc(C(=O)N[C@H](C)c2ccccc2)ccc1-c1cn[nH]c1 (stereo partly drawn) [Example 273, 3-(1-hydroxyethyl)-N-[(1R)-1-phenylethyl]-4-(1H-pyrazol-4-yl)benzamide]
287	263	COC[C@@H](NC(=O)c1ccc(-c2cn[nH]c2)c(C(C)O)c1)c1ccccc1 (stereo partly drawn) [Example 274, 3-(1-hydroxyethyl)-N-[(1S)-2-methoxy-1-phenylethyl]-4-(1H-pyrazol-4-yl)benzamide]
983	1420	CC(NC(=O)c1ccc(-c2cn[nH]c2)c(C=O)c1)c1ccccc1F (stereo not shown) [Example 275, N-[1-(2-fluorophenyl)ethyl]-3-formyl-4-(1H-pyrazol-4-yl)benzamide]
509	409	CC(NC(=O)c1ccc(-c2cn[nH]c2)c(C=O)c1)c1ccccc1F (stereo not shown) [Example 276, N-[1-(2-fluorophenyl)ethyl]-3-formyl-4-(1H-pyrazol-4-yl)benzamide]
156	44.2	COC[C@@H](NC(=O)c1ccc(-c2cn[nH]c2)c(C(C)O)c1)c1ccccc1 (stereo partly drawn) [Example 277, 3-(1-hydroxyethyl)-N-[(1S)-2-methoxy-1-phenylethyl]-4-(1H-pyrazol-4-yl)benzamide]
1780	1320	CC(O)c1cc(C(=O)NC(C)c2ccccc2F)ccc1-c1cn[nH]c1 (stereo not shown) [Example 278, N-[1-(2-fluorophenyl)ethyl]-3-(1-hydroxyethyl)-4-(1H-pyrazol-4-yl)benzamide]
52.9	15.7	CC(O)c1cc(C(=O)NC(C)c2ccccc2F)ccc1-c1cn[nH]c1 (stereo not shown) [Example 279, N-[1-(2-fluorophenyl)ethyl]-3-(1-hydroxyethyl)-4-(1H-pyrazol-4-yl)benzamide]
> 2000	443	CC(O)c1cc(C(=O)N[C@H](C)c2ccccc2)ccc1-c1cn[nH]c1 (stereo partly drawn) [Example 280, 3-(1-hydroxyethyl)-N-[(1R)-1-phenylethyl]-4-(1H-pyrazol-4-yl)benzamide]
26.8	9.73	CC(O)c1cc(C(=O)N[C@H](C)c2ccccc2)ccc1-c1cn[nH]c1 (stereo partly drawn) [Example 281, 3-(1-hydroxyethyl)-N-[(1R)-1-phenylethyl]-4-(1H-pyrazol-4-yl)benzamide]
242	336	CC(O)c1cc(C(=O)N[C@H](C)c2ccccc2F)ccc1-c1cn[nH]c1 (stereo partly drawn) [Example 282, N-[(1R)-1-(2-fluorophenyl)ethyl]-3-(1-hydroxyethyl)-4-(1H-pyrazol-4-yl)benzamide]
50.6	5.43	CC(O)c1cc(C(=O)N[C@H](C)c2ccccc2F)ccc1-c1cn[nH]c1 (stereo partly drawn) [Example 283, N-[(1R)-1-(2-fluorophenyl)ethyl]-3-(1-hydroxyethyl)-4-(1H-pyrazol-4-yl)benzamide]
842	183	CCC(O)c1cc(C(=O)N[C@H](C)c2ccccc2)ccc1-c1cn[nH]c1 (stereo partly drawn) [Example 284, 3-(1-hydroxypropyl)-N-[(1R)-1-phenylethyl]-4-(1H-pyrazol-4-yl)benzamide]
> 2000	1480	CCC(O)c1cc(C(=O)N[C@H](C)c2ccccc2)ccc1-c1cn[nH]c1 (stereo partly drawn) [Example 285, 3-(1-hydroxypropyl)-N-[(1R)-1-phenylethyl]-4-(1H-pyrazol-4-yl)benzamide]
97.6	190	CCC(O)c1cc(C(=O)N[C@H](C)c2ccccc2)ccc1-c1cn[nH]c1 (stereo partly drawn) [Example 286, 3-(1-hydroxypropyl)-N-[(1R)-1-phenylethyl]-4-(1H-pyrazol-4-yl)benzamide]
111	27.8	CC(O)c1cc(C(=O)NC(C)c2c(F)cccc2F)ccc1-c1cn[nH]c1 (stereo not shown) [Example 287, N-[1-(2,6-difluorophenyl)ethyl]-3-(1-hydroxyethyl)-4-(1H-pyrazol-4-yl)benzamide]
150	446	CC(O)c1cc(C(=O)NC(C)c2c(F)cccc2F)ccc1-c1cn[nH]c1 (stereo not shown) [Example 288, N-[1-(2,6-difluorophenyl)ethyl]-3-(1-hydroxyethyl)-4-(1H-pyrazol-4-yl)benzamide]
275	74.3	CC(O)c1cc(C(=O)NCc2c(F)cccc2Cl)ccc1-c1cn[nH]c1 (stereo not shown) [Example 289, N-[(2-chloro-6-fluorophenyl)methyl]-3-(1-hydroxyethyl)-4-(1H-pyrazol-4-yl)benzamide]
1950	1760	CC(O)c1cc(C(=O)NCc2c(F)cccc2Cl)ccc1-c1cn[nH]c1 (stereo not shown) [Example 290, N-[(2-chloro-6-fluorophenyl)methyl]-3-(1-hydroxyethyl)-4-(1H-pyrazol-4-yl)benzamide]
138	104	CC(O)c1cc(C(=O)NCc2c(F)cccc2Cl)ccc1-c1cn[nH]c1 (stereo not shown) [Example 291, N-[(2-chloro-6-fluorophenyl)methyl]-3-(1-hydroxyethyl)-4-(1H-pyrazol-4-yl)benzamide]

Further lines, the molecule ahead of its results:

Compound	IC50 [1] [nM]	IC50 [2] [nM]
COc1cc(-c2cn[nH]c2)ccc1C(=O)NCc1cccc(C(=O)NC2CCN(C)CC2)c1 [Example 249, 2-methoxy-N-({3-[(1-methylpiperidin-4-yl)carbamoyl]phenyl}methyl)-4-(1H-pyrazol-4-yl)benzamide]	1.24	0.36
COc1cc(C(=O)NCc2cccc(C(N)=O)c2)ccc1-c1cn[nH]c1 [Example 250, N-[(3-carbamoylphenyl)methyl]-3-methoxy-4-(1H-pyrazol-4-yl)benzamide]	10	0.72
Cc1cc(C(=O)N[C@H](CC(=O)O)c2ccccc2)ccc1-c1cn[nH]c1 [Example 251, (3R)-3-{[3-Methyl-4-(1H-pyrazol-4-yl)phenyl]formamido}-3-phenylpropanoic acid]	45.7	33.7
Cc1cc(C(=O)N[C@H](CC(=O)NCC(C)(C)O)c2ccccc2)ccc1-c1cn[nH]c1 [Example 253, (3R)-N-(2-Hydroxy-2-methylpropyl)-3-{[3-methyl-4-(1H-pyrazol-4-yl)phenyl]formamido}-3-phenylpropanamide]	99	255
CC(=O)NC[C@@H](NC(=O)c1ccc(-c2cn[nH]c2)c(C)c1)c1ccccc1 [Example 255, N-[(2S)-2-{[3-Methyl-4-(1H-pyrazol-4-yl)phenyl]formamido}-2-phenylethyl]acetamide]	97.2	10.9
Cc1cc(C(=O)N[C@H](CN)c2ccccc2)ccc1-c1cn[nH]c1 [Example 256, N-[(15)-2-amino-1-phenylethyl]-3-methyl-4-(1H-pyrazol-4-yl)benzamide]	3.38	0.72
CC(C)(O)COc1cc(C(=O)N[C@H](CN)c2ccccc2)ccc1-c1cn[nH]c1 [Example 257, N-[(15)-2-amino-1-phenylethyl]-3-(2-hydroxy-2-methylpropoxy)-4-(1H-pyrazol-4-yl)benzamide]	85.1	52.8
NC[C@@H](NC(=O)c1ccc(-c2cn[nH]c2)c(OCCO)c1)c1ccccc1 [Example 258, N-[(15)-2-amino-1-phenylethyl]-3-(2-hydroxyethoxy)-4-(1H-pyrazol-4-yl)benzamide]	8.92	3.45
COc1cc(C(=O)N[C@H](CNC(C)=O)c2ccccc2)ccc1-c1cn[nH]c1 [Example 259, N-[(25)-2-{[3-methoxy-4-(1H-pyrazol-4-yl)phenyl] formamido}-2-phenylethyl] acetamide]	23.6	9.37
COc1cc(C(=O)N[C@H](CNS(C)(=O)=O)c2ccccc2)ccc1-c1cn[nH]c1 [Example 260, N-[(1S)-2-methane-sulfonamido-1-phenylethyl]-3-methoxy-4-(1H-pyrazol-4-yl)benzamide]	6.62	1.9
COc1cc(C(=O)N[C@H](CNS(=O)(=O)C2CC2)c2ccccc2)ccc1-c1cn[nH]c1 [Example 261, N-[(1S)-2-cyclopropane-sulfonamido-1-phenylethyl]-3-methoxy-4-(1H-pyrazol-4-yl)benzamide]	11.3	2.89
CCS(=O)(=O)NC[C@@H](NC(=O)c1ccc(-c2cn[nH]c2)c(OC)c1)c1ccccc1 [Example 262, N-[(1S)-2-ethane-sulfonamido-1-phenylethyl]-3-methoxy-4-(1H-pyrazol-4-yl)benzamide]	55.2	36
Cc1cc(C(=O)N[C@H](CN(C)C)c2ccccc2)ccc1-c1cn[nH]c1 [Example 263, N-[(1S)-2-(Dimethylamino)-1-phenylethyl]-3-methyl-4-(1H-pyrazol-4-yl)benzamide]	6.45	3.94
CC[C@@H](NC(=O)c1ccc(-c2cn[nH]c2)c(OC)c1)c1c(F)cccc1F [Example 264, N-[(1R)-1-(2,6-Difluorophenyl)propyl]-3-methoxy-4-(1H-pyrazol-4-yl)benzamide]	77.3	23.4
CCNC[C@@H](NC(=O)c1ccc(-c2cn[nH]c2)c(OC)c1)c1c(F)cccc1F [Example 265, N-[(1S)-1-(2,6-Difluorophenyl)-2-(ethylamino)ethyl]-3-methoxy-4-(1H-pyrazol-4-yl)benzamide]	2.26	1.29
COc1cc(C(=O)N[C@H](CNC2CC2)c2c(F)cccc2F)ccc1-c1cn[nH]c1 [Example 266, N-[(1S)-2-(Cyclopropylamino)-1-(2,6-difluorophenyl)ethyl]-3-methoxy-4-(1H-pyrazol-4-yl)benzamide]	4.62	4.53
C[C@@H](NC(=O)c1ccc(-c2cn[nH]c2)c(CO)c1)c1ccc(F)cc1 [Example 271, N-[(1R)-1-(4-Fluorophenyl)ethyl]-3-(hydroxymethyl)-4-(1H-pyrazol-4-yl)benzamide]	3450	75
